Like-named read-outs stand apart in the source and are kept apart here.
Tested on: hiPSC-CMs (iCell-Cardiomyocytes^2)
In short: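 Spontaneous field potentials and impedance recorded by MEA at 37°C, 5% CO2 in hiPSC-CM monolayers (50 K/well, fibronectin-coated), 5-min baseline before compound; final DMSO 0.1%. Values are percent change from baseline, mean ± SD, compared with DMSO by Wilcoxon-Mann Whitney, interpreted against DMSO tolerance intervals.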

N=C(N)c1ccc(OCCCCCOc2ccc(C(=N)N)cc2)cc1 [Pentamidine]
BR (beating rate), % change from baseline (0.1 µM, 2h): -1±2% | Beating below threshold, number of observations/total well numbers (0.1 µM, 2h): 0/6 | Cessation of beating, number of observations/total well numbers (0.1 µM, 2h): 0/6 | EAD, number of observations/total well numbers (0.1 µM, 2h): 0/6 | FPD (field-potential duration), % change from baseline (0.1 µM, 2h): 2.6±1.2% | FPDc (field-potential duration corrected by beat-rate), % change from baseline (0.1 µM, 2h): 2.2±1.4% | Flat T-wave-like, number of observations/total well numbers (0.1 µM, 2h): 0/6 | BR (beating rate), % change from baseline (0.1 µM, 24h): 2±2% | Beating below threshold, number of observations/total well numbers (0.1 µM, 24h): 0/6 | Cessation of beating, number of observations/total well numbers (0.1 µM, 24h): 0/6 | EAD, number of observations/total well numbers (0.1 µM, 24h): 0/6 | FPD (field-potential duration), % change from baseline (0.1 µM, 24h): 2±3.4% | FPDc (field-potential duration corrected by beat-rate), % change from baseline (0.1 µM, 24h): 2.8±3.1% | Flat T-wave-like, number of observations/total well numbers (0.1 µM, 24h): 0/6 | BR (beating rate), % change from baseline (0.1 µM, 48h): -4±3% | Beating below threshold, number of observations/total well numbers (0.1 µM, 48h): 0/6 | Cessation of beating, number of observations/total well numbers (0.1 µM, 48h): 0/6 | EAD, number of observations/total well numbers (0.1 µM, 48h): 0/6 | FPD (field-potential duration), % change from baseline (0.1 µM, 48h): 7.3±1.7% | FPDc (field-potential duration corrected by beat-rate), % change from baseline (0.1 µM, 48h): 5.7±2% | Flat T-wave-like, number of observations/total well numbers (0.1 µM, 48h): 0/6 | BR (beating rate), % change from baseline (0.1 µM, 72h): -6±3% | Beating below threshold, number of observations/total well numbers (0.1 µM, 72h): 0/6 | Cessation of beating, number of observations/total well numbers (0.1 µM, 72h): 0/6 | EAD, number of observations/total well numbers (0.1 µM, 72h): 0/6 | FPD (field-potential duration), % change from baseline (0.1 µM, 72h): 4.9±2.5% | FPDc (field-potential duration corrected by beat-rate), % change from baseline (0.1 µM, 72h): 3±2.9% | Flat T-wave-like, number of observations/total well numbers (0.1 µM, 72h): 0/6 | BR (beating rate), % change from baseline (0.1 µM, 96h): -13±3% | Beating below threshold, number of observations/total well numbers (0.1 µM, 96h): 0/6 | Cessation of beating, number of observations/total well numbers (0.1 µM, 96h): 0/6 | EAD, number of observations/total well numbers (0.1 µM, 96h): 0/6 | FPD (field-potential duration), % change from baseline (0.1 µM, 96h): 9.2±3.1% | FPDc (field-potential duration corrected by beat-rate), % change from baseline (0.1 µM, 96h): 4.3±2.8% | Flat T-wave-like, number of observations/total well numbers (0.1 µM, 96h): 0/6 | BR (beating rate), % change from baseline (0.3 µM, 2h): -4±4% | Beating below threshold, number of observations/total well numbers (0.3 µM, 2h): 0/5 | Cessation of beating, number of observations/total well numbers (0.3 µM, 2h): 0/5 | EAD, number of observations/total well numbers (0.3 µM, 2h): 0/5 | FPD (field-potential duration), % change from baseline (0.3 µM, 2h): 9.7±6.7 % | FPDc (field-potential duration corrected by beat-rate), % change from baseline (0.3 µM, 2h): 8±7.4% | Flat T-wave-like, number of observations/total well numbers (0.3 µM, 2h): 0/5 | BR (beating rate), % change from baseline (0.3 µM, 24h): 0±3% | Beating below threshold, number of observations/total well numbers (0.3 µM, 24h): 0/5 | Cessation of beating, number of observations/total well numbers (0.3 µM, 24h): 0/5 | EAD, number of observations/total well numbers (0.3 µM, 24h): 0/5 | FPD (field-potential duration), % change from baseline (0.3 µM, 24h): 4.6±3.3% | FPDc (field-potential duration corrected by beat-rate), % change from baseline (0.3 µM, 24h): 4.5±3.1% | Flat T-wave-like, number of observations/total well numbers (0.3 µM, 24h): 0/5 | BR (beating rate), % change from baseline (0.3 µM, 48h): -2±4% | Beating below threshold, number of observations/total well numbers (0.3 µM, 48h): 0/5 | Cessation of beating, number of observations/total well numbers (0.3 µM, 48h): 0/5 | EAD, number of observations/total well numbers (0.3 µM, 48h): 0/5 | FPD (field-potential duration), % change from baseline (0.3 µM, 48h): 4.9±2.6% | FPDc (field-potential duration corrected by beat-rate), % change from baseline (0.3 µM, 48h): 4.1±2% | Flat T-wave-like, number of observations/total well numbers (0.3 µM, 48h): 0/5 | BR (beating rate), % change from baseline (0.3 µM, 72h): -11±4% | Beating below threshold, number of observations/total well numbers (0.3 µM, 72h): 0/5 | Cessation of beating, number of observations/total well numbers (0.3 µM, 72h): 0/5 | EAD, number of observations/total well numbers (0.3 µM, 72h): 0/5 | FPD (field-potential duration), % change from baseline (0.3 µM, 72h): 10.5±2.1% | FPDc (field-potential duration corrected by beat-rate), % change from baseline (0.3 µM, 72h): 6.4±2.9% | Flat T-wave-like, number of observations/total well numbers (0.3 µM, 72h): 0/5 | BR (beating rate), % change from baseline (0.3 µM, 96h): -20±5% | Beating below threshold, number of observations/total well numbers (0.3 µM, 96h): 0/5 | Cessation of beating, number of observations/total well numbers (0.3 µM, 96h): 0/5 | EAD, number of observations/total well numbers (0.3 µM, 96h): 0/5 | FPD (field-potential duration), % change from baseline (0.3 µM, 96h): 17.7±1.7% | FPDc (field-potential duration corrected by beat-rate), % change from baseline (0.3 µM, 96h): 9.3±1.9% | Flat T-wave-like, number of observations/total well numbers (0.3 µM, 96h): 0/5 | time point from which physiologically relevant prolongation of FPD and FPDc was observed (1 µM): 48 h | BR (beating rate), % change from baseline (1 µM, 2h): -3±3% | Beating below threshold, number of observations/total well numbers (1 µM, 2h): 0/6 | Cessation of beating, number of observations/total well numbers (1 µM, 2h): 0/6 | EAD, number of observations/total well numbers (1 µM, 2h): 0/6 | FPD (field-potential duration), % change from baseline (1 µM, 2h): 3.6±1.6% | FPDc (field-potential duration corrected by beat-rate), % change from baseline (1 µM, 2h): 2.5±1.7% | Flat T-wave-like, number of observations/total well numbers (1 µM, 2h): 0/6 | BR (beating rate), % change from baseline (1 µM, 24h): -7±3% | Beating below threshold, number of observations/total well numbers (1 µM, 24h): 0/6 | Cessation of beating, number of observations/total well numbers (1 µM, 24h): 0/6 | EAD, number of observations/total well numbers (1 µM, 24h): 0/6 | FPD (field-potential duration), % change from baseline (1 µM, 24h): 8±1% | FPDc (field-potential duration corrected by beat-rate), % change from baseline (1 µM, 24h): 5.5±1.6% | Flat T-wave-like, number of observations/total well numbers (1 µM, 24h): 0/6 | BR (beating rate), % change from baseline (1 µM, 48h): -16±3 % | Beating below threshold, number of observations/total well numbers (1 µM, 48h): 0/6 | Cessation of beating, number of observations/total well numbers (1 µM, 48h): 0/6 | EAD, number of observations/total well numbers (1 µM, 48h): 0/6 | FPD (field-potential duration), % change from baseline (1 µM, 48h): 21.1±3.4 % | FPDc (field-potential duration corrected by beat-rate), % change from baseline (1 µM, 48h): 14.3±2.3 % | Flat T-wave-like, number of observations/total well numbers (1 µM, 48h): 0/6 | BR (beating rate), % change from baseline (1 µM, 72h): -30±2 % | Beating below threshold, number of observations/total well numbers (1 µM, 72h): 0/6 | Cessation of beating, number of observations/total well numbers (1 µM, 72h): 0/6 | EAD, number of observations/total well numbers (1 µM, 72h): 0/6 | FPD (field-potential duration), % change from baseline (1 µM, 72h): 54.7±5.4 % | FPDc (field-potential duration corrected by beat-rate), % change from baseline (1 µM, 72h): 37.5±4.3 % | Flat T-wave-like, number of observations/total well numbers (1 µM, 72h): 0/6 | BR (beating rate), % change from baseline (1 µM, 96h): -30±5 % | Beating below threshold, number of observations/total well numbers (1 µM, 96h): 0/6 | Cessation of beating, number of observations/total well numbers (1 µM, 96h): 0/6 | EAD, number of observations/total well numbers (1 µM, 96h): 0/6 | FPD (field-potential duration), % change from baseline (1 µM, 96h): 71.5±10.4 % | FPDc (field-potential duration corrected by beat-rate), % change from baseline (1 µM, 96h): 52.5±8.8 % | Flat T-wave-like, number of observations/total well numbers (1 µM, 96h): 0/6 | time point from which physiologically relevant prolongation of FPD and FPDc was observed (3 µM): 24 h | BR (beating rate), % change from baseline (3 µM, 72h): -54±5 % | Beating below threshold, number of observations/total well numbers (3 µM, 72h): 0/6 | Cessation of beating, number of observations/total well numbers (3 µM, 72h): 3/6 | EAD, number of observations/total well numbers (3 µM, 72h): 2/6 | FPD (field-potential duration), % change from baseline (3 µM, 72h): 224.5±68 % | FPDc (field-potential duration corrected by beat-rate), % change from baseline (3 µM, 72h): 156.4±52.5 % | Flat T-wave-like, number of observations/total well numbers (3 µM, 72h): 1/6 | cessation of beating, wells/total wells (3 µM, 72h): 3/6 | Beating below threshold, number of observations/total well numbers (3 µM, 96h): 1/6 | Cessation of beating, number of observations/total well numbers (3 µM, 96h): 5/6 | EAD, number of observations/total well numbers (3 µM, 96h): 0/6 | Flat T-wave-like, number of observations/total well numbers (3 µM, 96h): 0/6 | cessation of beating, wells/total wells (3 µM, 96h): 6/6 | BR (beating rate), % change from baseline (3 µM, 2h): -2±3% | Beating below threshold, number of observations/total well numbers (3 µM, 2h): 0/6 | Cessation of beating, number of observations/total well numbers (3 µM, 2h): 0/6 | EAD, number of observations/total well numbers (3 µM, 2h): 0/6 | FPD (field-potential duration), % change from baseline (3 µM, 2h): 3.6±1.9% | FPDc (field-potential duration corrected by beat-rate), % change from baseline (3 µM, 2h): 2.7±2.1% | Flat T-wave-like, number of observations/total well numbers (3 µM, 2h): 0/6 | BR (beating rate), % change from baseline (3 µM, 24h): -18±8 % | Beating below threshold, number of observations/total well numbers (3 µM, 24h): 0/6 | Cessation of beating, number of observations/total well numbers (3 µM, 24h): 0/6 | EAD, number of observations/total well numbers (3 µM, 24h): 0/6 | FPD (field-potential duration), % change from baseline (3 µM, 24h): 23.4±11.8 % | FPDc (field-potential duration corrected by beat-rate), % change from baseline (3 µM, 24h): 15.2±8% | Flat T-wave-like, number of observations/total well numbers (3 µM, 24h): 0/6 | BR (beating rate), % change from baseline (3 µM, 48h): -30±8 % | Beating below threshold, number of observations/total well numbers (3 µM, 48h): 0/6 | Cessation of beating, number of observations/total well numbers (3 µM, 48h): 0/6 | EAD, number of observations/total well numbers (3 µM, 48h): 0/6 | FPD (field-potential duration), % change from baseline (3 µM, 48h): 73.1±39.4 % | FPDc (field-potential duration corrected by beat-rate), % change from baseline (3 µM, 48h): 52.6±30.7 % | Flat T-wave-like, number of observations/total well numbers (3 µM, 48h): 0/6 | concentration from which prolongation of FPD and EAD-like events were induced (time- and dose-dependent): 1000 nM
